# According to patent US20260193221A1, “SOLID FORMS COMPRISING (5R,6S)-10,11-DIFLUORO-12-((2-FLUORO-4-IODOPHENYL)AMINO)-5,6-DIHYDROXY-4,5,6,7-TETRAHYDRO-1H-SPIRO[BENZO[B][1,5,4]OXATHIAZECINE-3,1'-CYCLOPROPANE] 2,2-DIOXIDE, AND COMPOSITIONS COMPRISING AND METHODS OF USING THE SAME” (PASITHEA THERAPEUTICS CORP., priority 2024, published 2026):
# “Also recorded” adds a separate entry of the source. Like-named read-outs stand apart in the source and are kept apart here.
# Assays:
# [1] = Solubility, Experiment 1 (target concentration 2 mg/mL); assay type: physicochemical; conditions: for Solubility / XRPD of residual solid: 37° C.
# Experimental: (§1) Experiment 1: 5 mg of Form A and 5 mg of amorphous form were weighed into an 8 mL glass vial, respectively. 2.5 mL of solubility medium was added. Obtained suspensions/solutions were stirred at 37° C. at 400 rpm and sampled at 2 hours and at 24 hours. Obtained suspensions/solutions were filtered through a 0.45 μm PVDF membrane filter by centrifugation at 14,000 rpm and at 37° C. Filtrate were analyzed by HPLC and pH meter for solubility and pH value, respectively. Residual solids (wet cakes) from the 24 hours samples were also characterized by XRPD to determine physical form.
# [2] = Solubility, Experiment 2 (target concentration 5 mg/mL); assay type: physicochemical; conditions: for Solubility: 37° C.
# Experimental: as §1, with “2:” for “1:”, “1” for “2.5”, “respectively.” for “respectively. Residual solids (wet cakes) from the 24 hours samples were also characterized by XRPD to determine physical form.”
# [3] = Phase 1 clinical trial, pharmacokinetics; assay type: in vivo, human; conditions: for AUC0-24 / Cmin / half-life / Cmax: patients; for AUC0-24 / Cmin / Cmax: geometric mean (geometric CV %); for half-life / Cmax: human, plasma, po
# From the text: (§2) A Phase 1 Open-Label Study to Assess the Safety, Tolerability, Pharmacokinetics, and Pharmacodynamics of Compound 1 in Patients with MAPK Pathway-Driven Advanced Solid Tumors with a Documented RAS, NF1, or RAF Mutation or Patients Who have Failed BRAF/MEK Inhibition
# (§3) The Phase 1 clinical trial is a multi-center, open-label, dose escalation 3+3 study design to evaluate the safety, tolerability, pharmacokinetic (PK), pharmacodynamic (PD), and preliminary efficacy of Compound 1 in patients with MAPK pathway driven advanced solid tumors with a documented RAS, NF or RAF mutation or patients who have failed BRAF/MEK inhibition.
# (§4) Patients with histologically or cytologically diagnosed mitogen-activated protein kinase (MAPK) pathway driven advanced solid tumors with all of the following characteristics qualified for enrollment: • i. tumor cannot be surgically resected • ii. patient has failed or is ineligible for standard of care therapy • iii. patient has no available treatment options with known clinical benefit • iv. documented evidence of rat sarcoma virus (RAS), neurofibromatosis type I (NF1), and/or rapidly accelerated fibrosarcoma (RAF) mutations. Patients with RAF mutations must have previously failed v-Raf murine sarcoma viral oncogene homolog B (BRAF)/MEK inhibition.
# (§5) Patients in the study were administered Compound 1 by mouth as a single dose, followed by one week observation, then once a day during the study, in 28-day cycles. Participants will continue on daily Compound 1 for up to 2 years, or until: • i. they decide to withdraw from the study, or • ii. they experience unacceptable side effects, or • iii. their disease progresses, or another illness interferes with taking the study drug, or • iv. the sponsors stops the study.
# (§6) In this study, Compound 1 was presented in 1 mg, 4 mg, and 10 mg strength capsules, intended for oral administration once daily. Sequential dose escalation is: 2 mg, 4 mg, 8 mg, 15 mg, 22 mg, 30 mg, 37 mg, and 45 mg.
# [4] = Phase 1 clinical trial, safety and tolerability; assay type: in vivo, human
# From the text: as §2, §3, §4, §5, §6
# Bulk stability = assay type: physicochemical; conditions: 25° C./92.5% RH open, 40° C./75% RH open, 60° C. closed container; 1 week
# Experimental: Form A was placed at 25° C./92.5% RH in an open container, at 40° C./75% RH in an open container, and at 60° C. in a closed container for 1 week. Samples after the stress were characterized by XRPD and HPLC and inspected for color change.
# Hygroscopicity by DVS = assay type: physicochemical
# Experimental: Water sorption and desorption behavior Form A was investigated by DVS at 25° C. with a cycle of 40-0-95-0-40% RH. XRPD was measured after the DVS test to determine form change. […] The DVS test measured 0.4% water uptake from 40% to 80% RH, see FIG. 4.
# [5] = Mechanic properties (compression, dry grinding, wet granulation simulation); assay type: physicochemical
# Experimental: Compression simulation experiments: about 20 mg of Form A was compressed for 5 minutes under 2 MPa, 5 MPa and 10 MPa with a hydraulic press. Potential form change and degree of crystallinity were evaluated by XRPD.
# Dry grinding simulation experiments: about 20 mg of Form A was ground manually with a mortar and a pestle for 5 min. Potential form change and degree of crystallinity were evaluated by XRPD.
# Wet granulation simulation experiments: water or ethanol was added drop-wisely to about 20 mg of Form A until the sample was wetted sufficiently. Wet sample was ground gently with in a mortar and a pestle for 5 min. Post granulation sample was dried under ambient condition for 10 min. Potential form change and degree of crystallinity were evaluated by XRPD.
# [6] = Acetate buffer (50 mM), pH 4.5, 24 h
# [7] = Acetate buffer (50 mM), pH 4.5, 24 h, target concentration 2 mg/mL
# [8] = FaSSGF, pH 1.6, 24 h, target concentration 2 mg/mL
# [9] = FaSSIF-v1, pH 6.5, 2 h, target concentration 2 mg/mL
# [10] = FaSSIF-v1, pH 6.5, 24 h, target concentration 2 mg/mL
# [11] = HCl solution, pH 1.2, 24 h, target concentration 2 mg/mL
# [12] = Phosphate buffer (50 mM), pH 6.8, 24 h
# [13] = Phosphate buffer (50 mM), pH 6.8, 24 h, target concentration 2 mg/mL
# [14] = 2 mg, Day 22 (steady state), oral once daily
# [15] = 4 mg, Day 22 (steady state), oral once daily
structure (smiles),measurement,setting,value
"O=S1(=O)Nc2c(cc(F)c(F)c2Nc2ccc(I)cc2F)OC[C@H](O)[C@H](O)CC12CC2 [Amorphous form, (5R,6S)-10,11-difluoro-12-((2-fluoro-4-iodophenyl)amino)-5,6-dihydroxy-4,5,6,7-tetrahydro-1H-spiro[benzo[b][1,5,4]oxathiazecine-3,1′-cyclopropane]2,2-dioxide]",Solubility,"[1]; Acetate buffer (50 mM), pH 4.5, 2 h, target concentration 2 mg/mL",17 µg/mL
same,XRPD of residual solid,[1]; [6],Amorphous
same,Solubility,[1]; [7],17 µg/mL
same,Solubility,"[1]; FaSSGF, pH 1.6, 2 h, target concentration 2 mg/mL",16 µg/mL
same,XRPD of residual solid,"[1]; FaSSGF, pH 1.6, 24 h",Amorphous
same,Solubility,[1]; [8],14 µg/mL
same,Solubility,[1]; [9],1100 µg/mL
same,XRPD of residual solid,"[1]; FaSSIF-v1, pH 6.5, 24 h",Amorphous
same,Solubility,[1]; [10],1200 µg/mL
same,Solubility,"[1]; FeSSIF-v1, pH 5.0, 2 h, target concentration 2 mg/mL",>2000 µg/mL
same,Solubility,"[1]; FeSSIF-v1, pH 5.0, 24 h, target concentration 2 mg/mL",>2000 µg/mL
same,Solubility,"[1]; HCl solution, pH 1.2, 2 h, target concentration 2 mg/mL",14 µg/mL
same,XRPD of residual solid,"[1]; HCl solution, pH 1.2, 24 h",Form A
same,Solubility,[1]; [11],13 µg/mL
same,Solubility,"[1]; Phosphate buffer (50 mM), pH 6.8, 2 h, target concentration 2 mg/mL",16 µg/mL
same,XRPD of residual solid,[1]; [12],Amorphous
same,Solubility,[1]; [13],16 µg/mL
same,Solubility,"[1]; Water, 2 h, target concentration 2 mg/mL",38 µg/mL
same,XRPD of residual solid,"[1]; Water, 24 h",Amorphous
same,Solubility,"[1]; Water, 24 h, target concentration 2 mg/mL",34 µg/mL
same,Solubility,"[2]; FeSSIF-v1, pH 5.0, 2 h",>5000 µg/mL
same,Solubility,"[2]; FeSSIF-v1, pH 5.0, 24 h",>5000 µg/mL
"O=S1(=O)Nc2c(cc(F)c(F)c2Nc2ccc(I)cc2F)OC[C@H](O)[C@H](O)CC12CC2 [Compound 1, (5R,6S)-10,11-difluoro-12-((2-fluoro-4-iodophenyl)amino)-5,6-dihydroxy-4,5,6,7-tetrahydro-1H-spiro[benzo[b][1,5,4]oxathiazecine-3,1′-cyclopropane]2,2-dioxide]",Dose dependence of plasma exposure,[3]; 2 mg and 4 mg cohorts,linear PK was observed
same,AUC0-24,"[3]; 2 mg, Day 1, oral",86.3 (89.2) ng*h/mIL
same,AUC0-24,[3]; [14],354 (95.2) ng*h/mIL
same,Cmin,[3]; [14],10.2 (119.4) ng/mL
same,AUC0-24,"[3]; 4 mg, Day 1, oral",100 (97.1) ng*h/mIL
same,AUC0-24,[3]; [15],"1,390 (12.8) ng*h/mIL"
same,Cmin,[3]; [15],51.5 (20.8) ng/mL
same,time at which drug levels peaked,"[3]; at steady-state, 2 mg and 4 mg dose groups",about 5 hours
same,half-life,"[3]; 2 mg and 4 mg cohorts, oral, read-out: half-life (converted)",~70 h
same,half-life,"[3]; 2 mg and 4 mg cohorts, oral, read-out: mean elimination half-life (converted)",67.9 h
same,Cmax,"[3]; 2 mg, Day 1, oral",4.91 ng/mL
same,Cmax,[3]; [14],16.2 ng/mL
same,Cmax,"[3]; 4 mg, Day 1, oral",6.36 ng/mL
same,Cmax,[3]; [15],61.3 ng/mL
same,Cmax/Cmin ratio,[3]; plasma concentration at steady state,1.2
same,"Rash or skin, gastrointestinal (GI), ocular toxicity",[4]; 2 and 4 mg dose levels,"without showing adverse side effects such as rash or GI toxicity; also recorded: no rash or skin toxicity, gastrointestinal (GI) toxicity, or ocular toxicity have been observed"
same,Drug-related serious adverse events (SAE),[4]; any dose arm,no drug-related serious adverse events
same,"Drug-related dose interruptions, reductions or discontinuations",[4]; first 2 dosing cohorts (n=6),"no drug-related dose interruptions, reductions or discontinuations"
same,Tolerability,"[4]; first 2 dosing cohorts (n=6), 2 mg and 4 mg",well-tolerated
"O=S1(=O)Nc2c(cc(F)c(F)c2Nc2ccc(I)cc2F)OC[C@H](O)[C@H](O)CC12CC2 [Form A, (5R,6S)-10,11-difluoro-12-((2-fluoro-4-iodophenyl)amino)-5,6-dihydroxy-4,5,6,7-tetrahydro-1H-spiro[benzo[b][1,5,4]oxathiazecine-3,1′-cyclopropane]2,2-dioxide]",XRPD of residual solid,[1]; [6],Form A
same,Solubility,[1]; [7],5.1 µg/mL
same,solubility at 2 h,"[1]; FaSSGF, pH 1.6, 37 °C, pH 1.6, fassgf or other biorelevant, thermodynamic from solid, pH 1.6, 2 h, target concentration 2 mg/mL",12 µg/mL
same,XRPD of residual solid,"[1]; FaSSGF, pH 1.6, 24 h",Form A
same,Solubility,[1]; [8],6.3 µg/mL
same,Solubility,[1]; [9],270 µg/mL
same,XRPD of residual solid,"[1]; FaSSIF-v1, pH 6.5, 24 h",Form A
same,Solubility,[1]; [10],330 µg/mL
same,solubility at 2 h,"[1]; FeSSIF-v1, pH 5.0, 37 °C, pH 5, fessif, thermodynamic from solid, FeSSIF-v1, pH 5.0, 2 h, target concentration 2 mg/mL",1800 µg/mL
same,solubility at 24 h,"[1]; FeSSIF-v1, pH 5.0, 37 °C, pH 5, fessif, thermodynamic from solid, FeSSIF-v1, pH 5.0, 24 h, target concentration 2 mg/mL",≥ 2000 µg/mL
same,solubility at 2 h,"[1]; HCl solution, pH 1.2, 37 °C, pH 1.2, simulated gastric fluid, thermodynamic from solid, pH 1.2, 2 h, target concentration 2 mg/mL",12 µg/mL
same,XRPD of residual solid,"[1]; HCl solution, pH 1.2, 24 h",Form A
same,Solubility,[1]; [11],3.7 µg/mL
same,XRPD of residual solid,[1]; [12],Form A
same,Solubility,[1]; [13],5.1 µg/mL
same,XRPD of residual solid,"[1]; Water, 24 h",Form A
same,solubility at 2 h,"[1]; acetate buffer (50 mM), pH 4.5, 37 °C, pH 4.5, aqueous buffer, thermodynamic from solid, pH 4.5, 2 h, target concentration 2 mg/mL",12 µg/mL
same,solubility at 2 h,"[1]; phosphate buffer (50 mM), pH 6.8, 37 °C, pH 6.8, aqueous buffer, thermodynamic from solid, pH 6.8, 2 h, target concentration 2 mg/mL",13 µg/mL
same,solubility at 2 h,"[1]; water, 37 °C, thermodynamic from solid, 2 h, target concentration 2 mg/mL",19 µg/mL
same,solubility at 24 h,"[2]; FeSSIF-v1, pH 5.0, 37 °C, pH 5, fessif, thermodynamic from solid, 24 h",3000 µg/mL
same,Solubility,"[2]; FeSSIF-v1, pH 5.0, 2 h",2400 µg/mL
same,Color change after stress,Bulk stability,no change of color was observed
same,Physical form after stress (XRPD),Bulk stability,Form A was confirmed
same,Water uptake (DVS),"Hygroscopicity by DVS; 25° C., from 40% to 80% RH",0.4%
same,Hygroscopicity,"Hygroscopicity by DVS; DVS at 25° C., cycle 40-0-95-0-40% RH",slightly hygroscopic
same,XRPD after the DVS test (form change),Hygroscopicity by DVS; after DVS cycle 40-0-95-0-40% RH,no form change
same,Crystallinity after compression (XRPD),"[5]; compressed 5 minutes under 2 MPa, 5 MPa and 10 MPa",No obvious decrease in crystallinity
same,Crystallinity after dry grinding (XRPD),[5]; ground manually with mortar and pestle for 5 min,Only a slight decrease in crystallinity
same,Crystallinity after wet granulation (XRPD),"[5]; water or ethanol, ground 5 min, dried 10 min",Only a slight decrease in crystallinity
